Among the data in patent US20080167189A1, “Polymer Compositions and Their Use in the Production of Active or Effective Ingredient Compositions” (Basf Aktiengesellschaft, priority 2005, published 2008) are solubility values, retold here.

Series [1] can be described thus: Solubility of the active compounds in distilled water.
Another series can be described thus: physchem. To be noted: water.

Values after ≈ are worked out from the molar mass of the structure shown.

For `COC(=O)N(OC)c1ccccc1COc1ccn(-c2ccc(Cl)cc2)n1` [Pyraclostrobin], the concentration in solution in series [1] (solubility) came to 2.4 µg/mL (≈ 6.19 µM). With `O=C(Nc1ccccc1-c1ccc(Cl)cc1)c1cccnc1Cl` [Boscalid], in the series “physchem”, the concentration in solution (solubility) came to 4.6 µg/mL (≈ 13.4 µM).
